Results: the NIST ThermoML archive (doi:10.1021/acs.jced.5b00385)
Numbers after ± are expanded uncertainties.

Conditions: Liquid, Vibrating tube method

COCCOC(C)=O [2-methoxyethyl ethanoate]
mass density (283.47 K, 100 kPa): 1015.98 ± 1 kg/m3 | mass density (283.47 K, 1000 kPa): 1016.6 ± 1 kg/m3 | mass density (283.47 K, 3000 kPa): 1018.02 ± 1 kg/m3 | mass density (283.47 K, 5000 kPa): 1019.43 ± 1 kg/m3 | mass density (283.47 K, 10000 kPa): 1022.82 ± 1.1 kg/m3 | mass density (283.47 K, 20000 kPa): 1029.33 ± 1.1 kg/m3 | mass density (283.47 K, 25000 kPa): 1032.44 ± 1.1 kg/m3 | mass density (283.47 K, 30000 kPa): 1035.47 ± 1.1 kg/m3 | mass density (283.47 K, 40000 kPa): 1041.29 ± 1.1 kg/m3 | mass density (283.47 K, 50000 kPa): 1046.81 ± 1.1 kg/m3 | mass density (283.47 K, 60000 kPa): 1052.11 ± 1.1 kg/m3 | mass density (283.47 K, 70000 kPa): 1057.33 ± 1.1 kg/m3 | mass density (283.47 K, 80000 kPa): 1062.12 ± 1.2 kg/m3 | mass density (283.47 K, 100000 kPa): 1071.34 ± 1.2 kg/m3 | mass density (283.48 K, 15000 kPa): 1026.12 ± 1.1 kg/m3 | mass density (283.48 K, 90000 kPa): 1066.8 ± 1.2 kg/m3 | mass density (293.45 K, 100 kPa): 1005.18 ± 1 kg/m3 | mass density (293.45 K, 1000 kPa): 1005.85 ± 1 kg/m3 | mass density (293.45 K, 3000 kPa): 1007.33 ± 1 kg/m3 | mass density (293.45 K, 5000 kPa): 1008.8 ± 1 kg/m3 | mass density (293.45 K, 10000 kPa): 1012.42 ± 1 kg/m3 | mass density (293.45 K, 15000 kPa): 1015.91 ± 1 kg/m3 | mass density (293.45 K, 20000 kPa): 1019.32 ± 1.1 kg/m3 | mass density (293.45 K, 25000 kPa): 1022.58 ± 1.1 kg/m3 | mass density (293.45 K, 30000 kPa): 1025.8 ± 1.1 kg/m3 | mass density (293.45 K, 40000 kPa): 1031.92 ± 1.1 kg/m3 | mass density (293.45 K, 50000 kPa): 1037.72 ± 1.1 kg/m3 | mass density (293.45 K, 60000 kPa): 1043.26 ± 1.1 kg/m3 | mass density (293.45 K, 70010 kPa): 1048.51 ± 1.1 kg/m3 | mass density (293.45 K, 90000 kPa): 1058.45 ± 1.2 kg/m3 | mass density (293.46 K, 80010 kPa): 1053.61 ± 1.1 kg/m3 | mass density (293.46 K, 100000 kPa): 1063.15 ± 1.2 kg/m3 | mass density (303.37 K, 100 kPa): 993.64 ± 1 kg/m3 | mass density (303.37 K, 5000 kPa): 997.55 ± 1 kg/m3 | mass density (303.37 K, 25000 kPa): 1012.15 ± 1 kg/m3 | mass density (303.37 K, 90010 kPa): 1049.67 ± 1.1 kg/m3 | mass density (303.38 K, 1000 kPa): 994.33 ± 1 kg/m3 | mass density (303.38 K, 3000 kPa): 995.95 ± 1 kg/m3 | mass density (303.38 K, 10000 kPa): 1001.38 ± 1 kg/m3 | mass density (303.38 K, 15000 kPa): 1005.07 ± 1 kg/m3 | mass density (303.38 K, 20000 kPa): 1008.68 ± 1 kg/m3 | mass density (303.38 K, 30000 kPa): 1015.48 ± 1 kg/m3 | mass density (303.38 K, 40000 kPa): 1021.92 ± 1.1 kg/m3 | mass density (303.38 K, 50000 kPa): 1027.99 ± 1.1 kg/m3 | mass density (303.38 K, 60000 kPa): 1033.79 ± 1.1 kg/m3 | mass density (303.38 K, 70000 kPa): 1039.34 ± 1.1 kg/m3 | mass density (303.38 K, 80000 kPa): 1044.62 ± 1.1 kg/m3 | mass density (303.38 K, 100000 kPa): 1054.53 ± 1.2 kg/m3 | mass density (313.28 K, 25000 kPa): 1002.26 ± 1 kg/m3 | mass density (313.29 K, 100 kPa): 982.6 ± 1 kg/m3 | mass density (313.29 K, 20000 kPa): 998.59 ± 1 kg/m3 | mass density (313.3 K, 1000 kPa): 983.35 ± 1 kg/m3 | mass density (313.3 K, 3000 kPa): 985.09 ± 1 kg/m3 | mass density (313.3 K, 5000 kPa): 986.8 ± 1 kg/m3 | mass density (313.3 K, 10000 kPa): 990.88 ± 1 kg/m3 | mass density (313.3 K, 15000 kPa): 994.81 ± 1 kg/m3 | mass density (313.3 K, 30000 kPa): 1005.78 ± 1 kg/m3 | mass density (313.3 K, 40000 kPa): 1012.55 ± 1 kg/m3 | mass density (313.3 K, 50000 kPa): 1018.92 ± 1.1 kg/m3 | mass density (313.3 K, 60000 kPa): 1024.91 ± 1.1 kg/m3 | mass density (313.3 K, 70000 kPa): 1030.73 ± 1.1 kg/m3 | mass density (313.3 K, 80000 kPa): 1036.18 ± 1.1 kg/m3 | mass density (313.3 K, 90000 kPa): 1041.42 ± 1.1 kg/m3 | mass density (313.3 K, 100000 kPa): 1046.43 ± 1.2 kg/m3 | mass density (323.14 K, 100 kPa): 971.53 ± 0.99 kg/m3 | mass density (323.14 K, 1000 kPa): 972.34 ± 0.99 kg/m3 | mass density (323.14 K, 3000 kPa): 974.16 ± 1 kg/m3 | mass density (323.15 K, 5000 kPa): 975.96 ± 1 kg/m3 | mass density (323.15 K, 10000 kPa): 980.29 ± 1 kg/m3 | mass density (323.15 K, 15000 kPa): 984.47 ± 1 kg/m3 | mass density (323.15 K, 20000 kPa): 988.47 ± 1 kg/m3 | mass density (323.15 K, 25000 kPa): 992.34 ± 1 kg/m3 | mass density (323.15 K, 70000 kPa): 1022.15 ± 1.1 kg/m3 | mass density (323.15 K, 80000 kPa): 1027.84 ± 1.1 kg/m3 | mass density (323.15 K, 90000 kPa): 1033.26 ± 1.1 kg/m3 | mass density (323.15 K, 100000 kPa): 1038.48 ± 1.1 kg/m3 | mass density (323.16 K, 30000 kPa): 996.08 ± 1 kg/m3 | mass density (323.16 K, 40000 kPa): 1003.14 ± 1 kg/m3 | mass density (323.16 K, 50000 kPa): 1009.8 ± 1 kg/m3 | mass density (323.16 K, 60000 kPa): 1016.1 ± 1.1 kg/m3 | mass density (333.01 K, 100 kPa): 960.32 ± 0.98 kg/m3 | mass density (333.01 K, 1000 kPa): 961.21 ± 0.98 kg/m3 | mass density (333.01 K, 3000 kPa): 963.17 ± 0.99 kg/m3 | mass density (333.01 K, 50000 kPa): 1000.75 ± 1 kg/m3 | mass density (333.01 K, 60000 kPa): 1007.3 ± 1.1 kg/m3 | mass density (333.02 K, 5000 kPa): 965.08 ± 0.99 kg/m3 | mass density (333.02 K, 10000 kPa): 969.69 ± 0.99 kg/m3 | mass density (333.02 K, 15000 kPa): 974.13 ± 1 kg/m3 | mass density (333.02 K, 20000 kPa): 978.36 ± 1 kg/m3 | mass density (333.02 K, 25000 kPa): 982.46 ± 1 kg/m3 | mass density (333.02 K, 30000 kPa): 986.35 ± 1 kg/m3 | mass density (333.02 K, 40000 kPa): 993.79 ± 1 kg/m3 | mass density (333.02 K, 70000 kPa): 1013.7 ± 1.1 kg/m3 | mass density (333.02 K, 80000 kPa): 1019.56 ± 1.1 kg/m3 | mass density (333.02 K, 90000 kPa): 1025.22 ± 1.1 kg/m3 | mass density (333.02 K, 100000 kPa): 1030.6 ± 1.1 kg/m3 | mass density (342.87 K, 1000 kPa): 949.88 ± 0.97 kg/m3 | mass density (342.88 K, 100 kPa): 948.92 ± 0.97 kg/m3 | mass density (342.88 K, 3000 kPa): 951.95 ± 0.98 kg/m3 | mass density (342.89 K, 5000 kPa): 953.98 ± 0.98 kg/m3 | mass density (342.89 K, 10000 kPa): 958.88 ± 0.98 kg/m3 | mass density (342.89 K, 15000 kPa): 963.56 ± 0.99 kg/m3 | mass density (342.89 K, 20000 kPa): 968.04 ± 1 kg/m3 | mass density (342.89 K, 25000 kPa): 972.33 ± 1 kg/m3 | mass density (342.9 K, 30000 kPa): 976.44 ± 1 kg/m3 | mass density (342.9 K, 40000 kPa): 984.26 ± 1 kg/m3 | mass density (342.9 K, 50000 kPa): 991.52 ± 1 kg/m3 | mass density (342.9 K, 60000 kPa): 998.35 ± 1 kg/m3 | mass density (342.9 K, 70000 kPa): 1005.1 ± 1.1 kg/m3 | mass density (342.9 K, 80010 kPa): 1011.23 ± 1.1 kg/m3 | mass density (342.9 K, 90000 kPa): 1017.07 ± 1.1 kg/m3 | mass density (342.9 K, 100000 kPa): 1022.63 ± 1.1 kg/m3 | mass density (352.77 K, 10000 kPa): 948.28 ± 0.98 kg/m3 | mass density (352.77 K, 15000 kPa): 953.26 ± 0.98 kg/m3 | mass density (352.77 K, 20000 kPa): 958 ± 0.99 kg/m3 | mass density (352.78 K, 25000 kPa): 962.53 ± 0.99 kg/m3 | mass density (352.78 K, 30000 kPa): 966.88 ± 1 kg/m3 | mass density (352.78 K, 40000 kPa): 975.07 ± 1 kg/m3 | mass density (352.78 K, 50000 kPa): 982.69 ± 1 kg/m3 | mass density (352.78 K, 60000 kPa): 989.8 ± 1 kg/m3 | mass density (352.79 K, 100 kPa): 937.57 ± 0.96 kg/m3 | mass density (352.79 K, 1000 kPa): 938.6 ± 0.96 kg/m3 | mass density (352.79 K, 3000 kPa): 940.86 ± 0.97 kg/m3 | mass density (352.79 K, 5000 kPa): 943.03 ± 0.97 kg/m3 | mass density (352.79 K, 70000 kPa): 996.7 ± 1 kg/m3 | mass density (352.79 K, 80000 kPa): 1003.07 ± 1.1 kg/m3 | mass density (352.79 K, 90000 kPa): 1009.1 ± 1.1 kg/m3 | mass density (352.79 K, 100000 kPa): 1014.88 ± 1.1 kg/m3 | mass density (362.64 K, 100 kPa): 926.12 ± 0.95 kg/m3 | mass density (362.64 K, 1000 kPa): 927.21 ± 0.95 kg/m3 | mass density (362.64 K, 3000 kPa): 929.6 ± 0.95 kg/m3 | mass density (362.64 K, 5000 kPa): 931.91 ± 0.96 kg/m3 | mass density (362.64 K, 15000 kPa): 942.8 ± 0.97 kg/m3 | mass density (362.64 K, 50000 kPa): 973.78 ± 1 kg/m3 | mass density (362.65 K, 10000 kPa): 937.52 ± 0.97 kg/m3 | mass density (362.65 K, 20000 kPa): 947.84 ± 0.98 kg/m3 | mass density (362.65 K, 25000 kPa): 952.6 ± 0.99 kg/m3 | mass density (362.65 K, 30000 kPa): 957.19 ± 0.99 kg/m3 | mass density (362.65 K, 40000 kPa): 965.79 ± 1 kg/m3 | mass density (362.65 K, 60000 kPa): 981.22 ± 1 kg/m3 | mass density (362.65 K, 70000 kPa): 988.32 ± 1 kg/m3 | mass density (362.65 K, 80000 kPa): 994.92 ± 1.1 kg/m3 | mass density (362.65 K, 90000 kPa): 1001.16 ± 1.1 kg/m3 | mass density (362.65 K, 100000 kPa): 1007.15 ± 1.1 kg/m3
